No end group written: not given here.
How the values were obtained:
[1] = test system: P. aeruginosa ATCC 25668, ATCC 27853, and PAO1-L strains; test: microbe, parasite or virus in culture; format: cell-based, Pseudomonas aeruginosa; conditions: LB medium, 24 h, 37 °C, OD600; same value for all three strains; triplicate, at least three experiments
Experimental: (§1) The following strains were used: P. aeruginosa ATCC 27853, ATCC 25668, and PAO1-L (Lausanne subline). All strains were grown at 37 °C in Luria Bertani (LB) medium or in Luria Bertani Agar (LBA) plates.
(§2) The antibacterial activities of L- and D-Q53 CecB were evaluated by determining (i) the MIC and (ii) the MBC. Tobramycin (Merck) was used as an antibiotic control. (i) An overnight (ON) bacterial culture was diluted to 1 × 10^6 cells/mL in LB medium. 50 µL/well were seeded in sterile polypropylene 96-well plates (Corning, Corning, NY, USA) and added with 50 µL LB medium, containing serial dilutions of each compound (final concentrations of L- and D-Q53 CecB peptides from 1.1 to 35.2 µM; final concentrations of tobramycin from 0.26 to 17 μM; each condition in triplicate). Microbial suspensions in the growing medium (positive control) and wells with only the medium (negative controls) were processed in parallel. Plates were incubated 24 h at 37 °C with agitation (300 rpm), and the absorbance was measured at 600 nm in a microplate reader. The MIC was considered as the lowest concentration determining a delta optical density at 600 nm (ΔOD600) equal to 0 ± 0.05. The ΔOD600 was determined by subtracting the OD600 recorded at time 0 from that obtained after 24 h. Each experiment was performed at least three times. […] For each sample, 100 μL of 1:10, 1:100, and 1:1000 dilutions were plated on LBA plates, and colonies were counted after 24 h at 37 °C. […] Each experiment was performed at least twice.

[2] = test system: P. aeruginosa PAO1-L strain; test: microbe, parasite or virus in culture; format: cell-based, Pseudomonas aeruginosa; conditions: value between parentheses, 24 h, 37 °C, plating on LBA
Experimental: as §1, §2

Substance: RWKIFKKIEKMGRNIRDGIVKAGPAIQVLGSAKAI-NH2 [L-Q53 CecB]
- MIC [1]: 2.20 µM
- MBC [2]: 4.40 µM

From paper PMC10419416, “Fighting Pseudomonas aeruginosa Infections: Antibacterial and Antibiofilm Activity of D-Q53 CecB, a Synthetic Analog of a Silkworm Natural Cecropin B Variant” (International Journal of Molecular Sciences, 2023)
